# According to PMC6290777, “Inhalation of the prodrug PI3K inhibitor CL27c improves lung function in asthma and fibrosis” (Nature Communications, 2018):
# Experiments:
# [1] = Microsomial stability, human; format: in vitro ADME; details: human liver microsomes, NADPH
# Experimental: To define whether this prodrug was suitable for inhaled administration, CL27c was studied to evaluate selected ADME (absorption, distribution, metabolism, and excretion) and pharmacokinetic properties. First, stability of CL27c and CL27e was analyzed in mouse plasma (Supplementary Table 1) and in mouse, rat, and human liver microsomes in the presence of nicotinamide adenine dinucleotide phosphate (NADPH; Supplementary Table 2). Next, clearance of CL27c was analyzed in C57BL/6J mice after either intra-venous or oral administration. […] Clearance of CL27c and CL27e after oral administration could not be determined due to their low bioavailability (Supplementary Table 3). Next, pharmacokinetics after inhalation was studied in C57BL/6J mice after delivering an aerosolized micro-suspension of CL27c. As shown in Table 1 and Supplementary Fig. 1b, CL27c dose-dependently reached the lungs and its metabolite CL27e was detectable after inhalation of the highest dose. […] Therefore, the inhaled prodrug promotes local effects but prevents systemic absorption of pharmacologically relevant amounts of the active compound. […]
# All tests for the microsomial stability of CL27c were conducted by the Istituto di Ricerche Biomediche (RBM) SpA – Merck Serono, Ivrea, Italy. […]
# Then, cells […]
# pretreated with different doses of CL27c were incubated at 37°C and 5% CO 2 for 10 minutes. […]
# [2] = test system: in vitro differentiated Treg; assay: Treg viability assessment; format: cell-based, C57BL/6 mice; details: 72 h; tested 1, 3, 10 or 30 uM
# Experimental: Cells were obtained from Lymph nodes and spleen from naive C57BL/6. Cells were then purified with CD4 T cell isolation Kit and with CD25 biotin and microbeads anti-biotin. Purified cells were cultured for 72 h in a 96-wells plate with anti-CD3/CD28 coated (1 ug/ml), TGF-B (1 ng/ml), or Cl27C (1, 3, 10 or 30 uM). After 72 h, the cells were harvested and stained with PBS (2% Bovine serum fetal) and anti-CD4 and fixable viability dye for 10 min. Cells were then fixed and permeabilized with intracellular fixation and permeabilization buffer set (eBioscience). Anti-FoxP3 was used for […]. After the staining, the cells were acquired with FACS VERSE machine and analyzed by FlowJo X software. […]
# obtained at 200 × magnification were analyzed using the software Image -J (NIH, USA). Results were expressed as extracellular matrix deposition area (pixels). […]
# Akt phosphorylation was measured by western blot as described in the “Western blot analysis” in […]
# Cells were obtained from Lymph nodes and spleen from naive C57Bl/6J and purified with CD4 T cell isolation Kit (Miltenyi Biotec #130-104-454) and with CD25 biotin (eBioscience #13-0252-81) and microbeads anti-biotin (Miltenyi Biotec #130-090-485). […] Positive stained cells were analyzed with FlowJo X software after removal of doublets events and debris through FSC-A/FSC-H gating.
# [3] = test system: murine bone marrow-derived macrophages; assay: BMDM migration (Boyden chamber); format: cell-based, mouse; details: CXCL12 100 nM and C5a 50 nM; CL27c 1 and 10 µM
# Experimental: For the migration assay, BMDMs (isolated as above described) were pretreated with Versene (Gibco™ #15040066) to detach them from the plate, washed, and incubated with free RPMI with different concentrations of CL27c for at least 2 h. Migration assay was subsequently performed by using a Boyden chamber toward C5a (50 nM, Sigma-Aldrich #SRP4895A) and CXCL12 (100 nM, Peprotech #250-20A) chemokines for 1 h at 37 °C, 5% CO2. Migrated BMDMs, attached to the polycarbonate of the Boyden chamber, were stained with Diff-Quik® reagent (MICROPTIC S.L. #DQ-ST) and counted at the microscope (5 fields/sample). The percentage of migrated cells was calculated by relating the number of the treated cells with the control vehicle (free RPMI).
compound,measurement,setting,value
COC(=O)c1cccc(Cn2cc(-c3cccc4c(=O)cc(N5CCOCC5)[nH]c34)nn2)c1 [CL27c],Clint (intrinsic clearance),[1],0.1 ± 0.03 ml/min/mg prot
same,t1/2,[1],10.2 ± 2.2 min
same,concentration with toxic effects on Treg viability,[2],30 µM
same,chemotaxis of BMDM,[3],significantly reduce CXCL12- and C5a-induced chemotaxis
